Assay results published in publication PMC6095608 (PLoS ONE, 2018).

Key:
parental MDCK cell line = assay: Calcein efflux assay in parental MDCK cells; type: cell-based, canine; conditions: calcein AM 0.25 μM, efavirenz 0.01–50 μM
Procedure: ABC transporter-expressing MDCK cells were seeded in 96-well plates at a density of 25 x 10^3 cells per well and cultivated in DMEM medium supplemented with 10% FBS. […] Intracellular fluorescence was then measured using excitation and emission wavelengths of 350 nm and 465 nm, respectively. […] Calcein fluorescence was measured using excitation and emission wavelengths of 496 nm and 516 nm, respectively.

MATE1 = molecular target: T1, MATE1 (Homo sapiens, UniProt Q96FL8); assay: Transcellular transport assay across MDCK-MATE1 monolayers; type: cell-based; conditions: 10 μM efavirenz, 2 h
T1 construct: expressed in transfected cells; host or cells: MDCKII (MDCK-MATE1)
T1 sequence (Q96FL8 whole entry): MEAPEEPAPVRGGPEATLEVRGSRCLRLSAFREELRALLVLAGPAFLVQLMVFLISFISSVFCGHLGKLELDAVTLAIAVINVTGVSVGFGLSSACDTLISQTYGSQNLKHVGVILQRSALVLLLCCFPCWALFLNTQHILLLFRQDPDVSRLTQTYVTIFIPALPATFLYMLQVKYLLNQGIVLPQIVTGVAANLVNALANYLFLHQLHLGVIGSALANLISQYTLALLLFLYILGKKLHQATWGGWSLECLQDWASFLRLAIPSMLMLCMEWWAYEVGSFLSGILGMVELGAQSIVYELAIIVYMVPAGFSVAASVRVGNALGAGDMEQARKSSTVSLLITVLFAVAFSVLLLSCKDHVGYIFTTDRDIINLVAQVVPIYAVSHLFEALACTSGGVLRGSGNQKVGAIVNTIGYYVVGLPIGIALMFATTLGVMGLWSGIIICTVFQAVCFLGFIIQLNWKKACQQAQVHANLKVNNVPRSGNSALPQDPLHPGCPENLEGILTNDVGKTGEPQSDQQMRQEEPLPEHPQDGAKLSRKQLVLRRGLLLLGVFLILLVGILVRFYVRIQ
Procedure: (§1) Transport experiments employing polarized monolayers of MDCK-OCT1, MDCK-OCT2, or MDCK-MATE1 cell lines as well as doubly transfected MDCK-OCT1-MATE1 or MDCK-OCT2-MATE1 lines and the non-transfected parental control MDCK-Co cells grown on Transwell 3402 cell culture inserts (3.0 μm pore size, 24 mm diameter; Costar, Corning, NY) were performed as described previously. The number of cells per well was 0.5 x 10^6 in all experiments, and the cells were incubated for 3 days to confluence in standard cultivation medium MEM (Gibco) + 10% FBS. After 3 days’ cultivation, medium was removed from both sides and the cells of the monolayer were washed using pre-warmed PBS. […] The pH of the medium on the basolateral side was 7.4, while that on the apical side was set to 6.0 (adjusted by adding HCl or NaOH, when necessary) to ensure optimal MATE1 transport activity. Cells were incubated at 37°C in 5% CO2 for 2 hours. At the end of the incubation period, 50 μl aliquots were sampled and the rest of the medium was immediately removed. The cells were then washed twice with ice-cold PBS, the membranes supporting cellular monolayers were excised, and the cells were dissolved in a 0.02% SDS solution. The radioactivity of the collected samples and lysed monolayers was measured by liquid scintillation counting (Tri-Carb 2910 TR Perkin Elmer), and the protein concentration of the cell lysates was quantified using the BCA protein assay. Transport rates were recorded in pmol per mg protein in the cellular monolayer.

OCT1 [1] = molecular target: T2, OCT1 (Homo sapiens, UniProt O15245); assay: Transcellular transport assay across MDCK-OCT1 monolayers; type: cell-based; conditions: 10 μM efavirenz, 2 h
T2 construct: expressed in transfected cells; host or cells: MDCKII (MDCK-OCT1)
T2 sequence (O15245 1-554): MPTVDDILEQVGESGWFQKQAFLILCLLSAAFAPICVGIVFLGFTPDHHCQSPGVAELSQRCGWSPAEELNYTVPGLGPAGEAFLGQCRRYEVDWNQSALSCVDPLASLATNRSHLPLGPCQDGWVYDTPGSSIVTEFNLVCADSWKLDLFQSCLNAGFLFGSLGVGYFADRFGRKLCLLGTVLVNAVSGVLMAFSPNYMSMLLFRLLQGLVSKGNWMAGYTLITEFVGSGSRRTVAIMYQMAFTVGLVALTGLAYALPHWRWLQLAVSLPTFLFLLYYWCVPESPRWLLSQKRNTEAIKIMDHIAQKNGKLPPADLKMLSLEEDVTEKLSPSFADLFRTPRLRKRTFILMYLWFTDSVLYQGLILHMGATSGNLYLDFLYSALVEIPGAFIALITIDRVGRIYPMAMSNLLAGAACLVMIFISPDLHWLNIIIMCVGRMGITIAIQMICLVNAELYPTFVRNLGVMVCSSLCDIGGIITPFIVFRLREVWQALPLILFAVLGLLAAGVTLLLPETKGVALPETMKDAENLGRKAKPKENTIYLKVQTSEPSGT
Procedure: as §1

OCT1 and MATE1 = assay: Transcellular transport assay across doubly transfected MDCK-OCT1-MATE1 monolayers; type: cell-based, human; conditions: 10 μM efavirenz, 2 h
Procedure: as §1

OCT1 [2] = tested on: OCT1; set-up: method as in PMID 25914645; conditions: OCT1-overexpressing KCL2 cells, 50 μM efavirenz; cited from earlier work
MDCK-Co cells = assay: Transcellular transport assay across control MDCK-Co monolayers; type: cell-based, canine; conditions: 10 μM efavirenz, 2 nM MPP+, 2 h
Procedure: Transport experiments employing polarized monolayers of MDCK-OCT1, MDCK-OCT2, or MDCK-MATE1 cell lines as well as doubly transfected MDCK-OCT1-MATE1 or MDCK-OCT2-MATE1 lines and the non-transfected parental control MDCK-Co cells grown on Transwell 3402 cell culture inserts (3.0 μm pore size, 24 mm diameter; Costar, Corning, NY) were performed as described previously. The number of cells per well was 0.5 x 10^6 in all experiments, and the cells were incubated for 3 days to confluence in standard cultivation medium MEM (Gibco) + 10% FBS. After 3 days’ cultivation, medium was removed from both sides and the cells of the monolayer were washed using pre-warmed PBS. Experiments were initiated by adding HBSS buffer containing 10 mM HEPES (pH 7.4) or 10 mM MES (pH 6.0) with or without [^3H]-lamivudine (10 nM) or [^3H]-MPP^+ (2 nM) to either the apical or basolateral compartment. The pH of the medium on the basolateral side was 7.4, while that on the apical side was set to 6.0 (adjusted by adding HCl or NaOH, when necessary) to ensure optimal MATE1 transport activity. Cells were incubated at 37°C in 5% CO2 for 2 hours. At the end of the incubation period, 50 μl aliquots were sampled and the rest of the medium was immediately removed. […] Transport rates were recorded in pmol per mg protein in the cellular monolayer.

[3] = cited from earlier work
MRP2 = MRP2 (Homo sapiens, UniProt Q92887); assay: Calcein efflux assay in MDCK-MRP2 cells
MRP2, sequence (Q92887 whole entry): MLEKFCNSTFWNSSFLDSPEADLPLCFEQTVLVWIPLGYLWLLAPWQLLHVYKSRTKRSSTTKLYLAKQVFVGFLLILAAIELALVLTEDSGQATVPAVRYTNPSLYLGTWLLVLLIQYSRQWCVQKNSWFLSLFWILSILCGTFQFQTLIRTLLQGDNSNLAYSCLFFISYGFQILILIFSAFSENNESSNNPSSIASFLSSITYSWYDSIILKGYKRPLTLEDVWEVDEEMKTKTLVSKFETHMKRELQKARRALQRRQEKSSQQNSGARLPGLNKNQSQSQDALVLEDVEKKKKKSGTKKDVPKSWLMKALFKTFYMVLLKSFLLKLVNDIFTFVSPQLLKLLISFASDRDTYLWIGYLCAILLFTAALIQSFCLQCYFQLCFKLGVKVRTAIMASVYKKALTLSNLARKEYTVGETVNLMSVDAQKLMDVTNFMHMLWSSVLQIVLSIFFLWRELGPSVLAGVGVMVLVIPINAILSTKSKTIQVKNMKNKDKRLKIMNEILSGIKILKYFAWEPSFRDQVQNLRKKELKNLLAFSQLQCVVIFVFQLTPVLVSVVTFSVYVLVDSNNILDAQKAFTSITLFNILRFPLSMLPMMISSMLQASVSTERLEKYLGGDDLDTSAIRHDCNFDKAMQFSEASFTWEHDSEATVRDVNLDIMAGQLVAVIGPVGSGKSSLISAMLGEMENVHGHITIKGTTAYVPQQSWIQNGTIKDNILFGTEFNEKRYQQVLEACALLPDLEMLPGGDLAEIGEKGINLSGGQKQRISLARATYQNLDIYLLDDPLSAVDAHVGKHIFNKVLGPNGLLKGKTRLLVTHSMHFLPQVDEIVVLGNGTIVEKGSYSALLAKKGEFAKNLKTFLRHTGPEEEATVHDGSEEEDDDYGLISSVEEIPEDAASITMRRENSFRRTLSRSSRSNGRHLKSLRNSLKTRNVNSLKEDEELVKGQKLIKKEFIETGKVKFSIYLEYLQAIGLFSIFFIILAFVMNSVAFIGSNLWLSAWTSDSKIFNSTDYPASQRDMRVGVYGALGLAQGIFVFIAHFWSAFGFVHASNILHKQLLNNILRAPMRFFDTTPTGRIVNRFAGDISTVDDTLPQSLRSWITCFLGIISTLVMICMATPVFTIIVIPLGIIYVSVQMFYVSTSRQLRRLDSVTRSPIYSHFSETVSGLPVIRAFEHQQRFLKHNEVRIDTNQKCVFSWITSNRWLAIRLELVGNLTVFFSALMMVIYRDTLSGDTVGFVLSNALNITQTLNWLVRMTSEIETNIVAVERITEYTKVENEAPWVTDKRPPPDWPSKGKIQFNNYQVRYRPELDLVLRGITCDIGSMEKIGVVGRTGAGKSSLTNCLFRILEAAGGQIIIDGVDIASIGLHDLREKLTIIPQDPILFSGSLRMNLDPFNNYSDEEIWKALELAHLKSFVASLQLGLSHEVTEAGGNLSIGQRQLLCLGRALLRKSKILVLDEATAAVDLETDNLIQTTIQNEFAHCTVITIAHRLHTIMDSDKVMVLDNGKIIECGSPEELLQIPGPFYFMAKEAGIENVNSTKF
Procedure: ABC transporter-expressing MDCK cells were seeded in 96-well plates at a density of 25 x 10^3 cells per well and cultivated in DMEM medium supplemented with 10% FBS. Forty-eight hours after seeding, the cells were used in accumulation experiments with Hoechst 33342 (a common fluorescent substrate of MDR1 and BCRP) or efflux assays with Calcein (a fluorescent substrate of MRP2). Briefly, at the end of the 48 hours, the medium was aspirated and the cells were washed with pre-warmed PBS and then preincubated with efavirenz in Opti-MEM for 30 minutes. In the Hoechst 33342 assays, a solution of Hoechst 33342 (50 μg/ml) in Opti-MEM was added and allowed to accumulate for 30 minutes. The experiment was stopped by aspirating the medium and washing the cells twice with ice cold PBS. Intracellular fluorescence was then measured using excitation and emission wavelengths of 350 nm and 465 nm, respectively. In the calcein efflux assays, a solution of calcein AM in Opti-MEM with or without efavirenz was added after the pre-incubation phase and allowed to accumulate for 15 minutes. […] Calcein fluorescence was measured using excitation and emission wavelengths of 496 nm and 516 nm, respectively.
Statistical analyses were performed using GraphPad Prism, version 7.03 (GraphPad Software, San Diego, CA). P values were calculated using multiple two-tailed t-tests or one-way ANOVA followed by Dunnett’s or Bonferroni’s multiple comparison test, as appropriate. […] The half-maximal inhibitory concentration (IC50) was calculated by non-linear regression analysis using sigmoidal Hill kinetics.
Model inhibitors of MDR1, BCRP and MRP2, namely LY335979 (LY, 1 μM), Ko143 (2.5 μM), and MK571 (10 μM), respectively, were used as positive controls at the minimal concentrations causing maximal inhibition in the corresponding cellular system and assay. […] Data were analyzed by one-way ANOVA followed by Bonferroni’s multiple comparison test (* P ≤ 0.05, ** P ≤ 0.01, *** P ≤ 0.001) and are presented as means ± SD of at least three experiments (n = 3–5) performed in triplicate.

MDCK cell lines = assay: Cytotoxicity seen in accumulation assays in MDCK cell lines; type: cell-based, canine; conditions: 100 μM, highest tested concentration, all accumulation assays and MDCK cell lines
Text: Therefore, both relative and absolute IC50 values are reported (Fig 3).

human OCT2 = tested on: human OCT2; set-up: method as in PMID 18490433; conditions: 5 μM efavirenz, 1 min incubation; cited from earlier work

Effect on basolateral-to-apical transport of [3H]-MPP+ (MATE1; 2 nM MPP+, MDCK-MATE1): Inhibition
Effect on intracellular accumulation of [3H]-MPP+ (MATE1; 2 nM MPP+, MDCK-MATE1 monolayers): increased
Effect on intracellular accumulation of [3H]-lamivudine (MATE1; 10 nM lamivudine, MDCK-MATE1): enhanced
Effect on basolateral-to-apical transport of [3H]-MPP+ (OCT1 [1]; 2 nM MPP+, MDCK-OCT1): Inhibition
Effect on intracellular accumulation of [3H]-MPP+ (OCT1 [1]; 2 nM MPP+, MDCK-OCT1 monolayers): significantly reduced
Effect on intracellular accumulation of [3H]-lamivudine (OCT1 [1]; 10 nM lamivudine, MDCK-OCT1): significantly reduced
Effect on transcellular transport of [3H]-lamivudine (OCT1 [1]; 10 nM lamivudine, basal to apical, MDCK-OCT1): significantly inhibited
IC50 (MRP2; MRP2 absolute IC50, calcein efflux, control inhibitor MK571 10 μM = 100%): 4.9 µM
IC50 (MRP2; MRP2 relative IC50, calcein efflux, maximal inhibition by efavirenz alone = 100%): 1.6 µM
Concentrations inhibiting the MRP2 drug transporter (MRP2; calcein AM 0.25 μM efflux assay): ≥ 1 µM
SMILES: O=C1Nc2ccc(Cl)cc2[C@@](C#CC2CC2)(C(F)(F)F)O1 [efavirenz, Efavirenz]
Inhibition of calcein efflux from parental MDCK cells (parental MDCK cell line): not
Effect on basolateral-to-apical transport of [3H]-MPP+ (OCT1 and MATE1; 2 nM MPP+, MDCK-OCT1-MATE1): Inhibition
Effect on intracellular accumulation of [3H]-MPP+ (OCT1 and MATE1; 2 nM MPP+, MDCK-OCT1-MATE1 monolayers): unaffected
Effect on intracellular accumulation of [3H]-lamivudine (OCT1 and MATE1; 10 nM lamivudine, OCT1-MATE1 cells): remained unaffected
Effect on transcellular transport of [3H]-lamivudine (OCT1 and MATE1; 10 nM lamivudine, basal to apical, MDCK-OCT1-MATE1): significantly inhibited
Reduction in tetraethylammonium accumulation (OCT1 [2]): 50.0%
Effect on basolateral-to-apical transport of [3H]-MPP+ (MDCK-Co cells): no inhibitory effect
Efavirenz concentration in the plasma seen in humans (median) ([3]; humans): 6.9 µM
Efavirenz concentration in the plasma seen in humans (range) ([3]; humans): 0.4 to 48 µM
Average plasma concentration (cp) of efavirenz ([3]; therapeutically, responding HIV-positive patients): ~ 8.7 μM
Cytotoxicity in MDCK cell lines (MDCK cell lines): cytotoxicity
Inhibitory effect on OCT2 with MPP+ as substrate (human OCT2): did not detect any inhibitory effect
